IC50 data for 42 compounds are collected here from patent publication US20240247024A1, “INHIBITORS OF NICOTINAMIDE N-METHYL TRANSFERASE (NNMT)” (UNIVERSITEIT LEIDEN, priority 2021, published 2024).

“And” between values parts separate entries of the source, which are not always exact repeats. Equal entries are not always repeated. Where two headings read alike, the source gives them in different places.

The target of this assay is T1, NNMT (Homo sapiens, UniProt P40261).
T1 sequence (P40261 1-264): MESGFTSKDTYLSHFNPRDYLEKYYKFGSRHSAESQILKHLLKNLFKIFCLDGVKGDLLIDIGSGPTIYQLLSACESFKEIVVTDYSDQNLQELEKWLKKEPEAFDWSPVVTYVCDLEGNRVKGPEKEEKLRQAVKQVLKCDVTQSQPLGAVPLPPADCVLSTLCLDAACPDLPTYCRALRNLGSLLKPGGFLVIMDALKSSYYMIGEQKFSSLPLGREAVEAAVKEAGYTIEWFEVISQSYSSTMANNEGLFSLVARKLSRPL
Description: NNMT assay (HILIC-MS/MS, formation of MNA). The settings on record: NA 200 μM, SAM 8.5 μM.

[1] abbreviates: IC50 values (nM), Table 6, amino acid replacement, maximum concentration tested 25 μM.
The mark [2] stands for this setting: IC50 values (μM), Table 6, amino acid replacement, maximum concentration tested 25 μM.
Setting [3] is: IC50 values (nM), Table 3, 1-carbon alkyl linkers, maximum concentration tested 25 μM.
Setting [4] is: IC50 values (μM), Table 3, 1-carbon alkyl linkers, maximum concentration tested 25 μM.
Where [5] appears, read: IC50 values (nM), Table 1, alkene linked aromatics, maximum concentration tested 25 μM.
Setting [6] is: IC50 values (μM), Table 1, alkene linked aromatics, maximum concentration tested 25 μM.
Setting [7] is: read-out: IC50 values, Table 1, alkene linked aromatics, maximum concentration tested 25 μM.

For `N#Cc1ccc(/C=C/CN(CCS(=O)(=O)F)C[C@H]2O[C@@H](n3cnc4c(N)ncnc43)[C@H](O)[C@@H]2O)cc1` [GYZ-748], the IC50 is greater than 25000 nM under setting [1] and greater than 25000 nM under setting [2].
Consider `Nc1ncnc2c1ncn2[C@@H]1O[C@H](CN(CC[C@H](N)C(=O)O)Cc2ccccc2[N+](=O)[O-])[C@@H](O)[C@H]1O` [GYZ-425], for which the 50% inhibitory concentration (IC50) is greater than 25000 nM under setting [3] and greater than 25000 nM under setting [4].
With `Nc1ncnc2c1ncn2[C@@H]1O[C@H](CN(C/C=C/c2c(F)c(F)c(F)c(F)c2F)CC[C@H](N)C(=O)O)[C@@H](O)[C@H]1O` [MH609], the IC50 by setting is: under setting [5], 400 nM; under setting [6], 400 nM.
Consider `CCNCCN(C/C=C/c1ccc(C#N)cc1)C[C@H]1O[C@@H](n2cnc3c(N)ncnc32)[C@H](O)[C@@H]1O` [GYZ-761], for which the IC50 reads like this: under setting [1], greater than 25000 nM; under setting [2], greater than 25000 nM.
`N#Cc1ccc(/C=C/CN(CC[C@H](N)C(=O)O)C[C@H]2O[C@@H](n3cnc4c(N)ncnc43)[C@H](O)[C@@H]2O)c(F)c1` [GYZ-674]: the IC50 under setting [7] was 5 nM and 5.33 nM.
With `Nc1ncnc2c1ncn2[C@@H]1O[C@H](CN(C/C=C/c2ccccc2C(F)(F)F)CC[C@H](N)C(=O)O)[C@@H](O)[C@H]1O` [GYZ-326], under setting [7], the IC50 was determined as 2850 nM.
For `Nc1ncnc2c1ncn2[C@@H]1O[C@H](CN(CC[C@H](N)C(=O)O)Cc2ccc(S(=O)(=O)F)cc2)[C@@H](O)[C@H]1O` [GYZ-760], the IC50 runs as follows: under setting [3], 5620 nM; under setting [4], 5620 nM.
In the case of `N#Cc1c(F)cc(/C=C/CN(CC[C@H](N)C(=O)O)C[C@H]2O[C@@H](n3cnc4c(N)ncnc43)[C@H](O)[C@@H]2O)cc1F` [GYZ-670], under setting [7], the IC50 is 2 nM and 1.99 nM.
As to `CC(=O)N(C/C=C/c1ccc(C#N)cc1)C[C@H]1C[C@@H](n2ccc3c(Cl)ncnc32)[C@H](O)[C@@H]1O` [CM035], the IC50 runs as follows: (IC50 values (nM), Table 9, compounds CM035 and CM037) 3580 nM; (IC50 values (μM), Table 9, compounds CM035 and CM037) 3580 nM.
As to `Nc1ncnc2c1ncn2[C@@H]1O[C@H](CN(C/C=C/c2cccc(S(=O)(=O)F)c2)CC[C@H](N)C(=O)O)[C@@H](O)[C@H]1O` [GYZ-764], the IC50 under setting [7] was 89 nM and 88.6 nM.
For `Nc1ncnc2c1ncn2[C@@H]1O[C@H](CN(C/C=C/c2cc(F)c(F)c(F)c2)CC[C@H](N)C(=O)O)[C@@H](O)[C@H]1O` [MH611], the IC50 reads like this: under setting [5], 363 nM; under setting [6], 363 nM.
Regarding `N#Cc1ccc(/C=C/CN(CC[C@H](N)C(=O)O)C[C@H]2O[C@@H](n3cnc4c(N)ncnc43)[C@H](O)[C@@H]2O)cc1F` [GYZ-658], the IC50 under setting [7] was less than 5 nM.
For the compound `N#CCC(=O)NCCN(C/C=C/c1ccc(C#N)cc1)C[C@H]1O[C@@H](n2cnc3c(N)ncnc32)[C@H](O)[C@@H]1O` [GYZ-695], the IC50 was determined as 931 nM under setting [1] and 931 nM under setting [2].
`Nc1ncnc2c1ncn2[C@@H]1O[C@H](CN(C/C=C/c2cccc(B(O)O)c2)CC[C@H](N)C(=O)O)[C@@H](O)[C@H]1O` [GYZ-746]: the IC50 under setting [7] stood at 1660 nM.
With `Nc1ncnc2c1ncn2[C@@H]1O[C@H](CN(C/C=C/c2ccc(C(F)(F)F)cc2)CC[C@H](N)C(=O)O)[C@@H](O)[C@H]1O` [GYZ-350], the IC50 under setting [7] came to 1390 nM.
Regarding `N#Cc1ccc(/C=C/CN(C/C=C/c2ccc(C#N)cc2)C[C@H]2O[C@@H](n3cnc4c(N)ncnc43)[C@H](O)[C@@H]2O)cc1` [GYZ-466], the IC50 is greater than 25000 nM under setting [1] and greater than 25000 nM under setting [2].
In the case of `Nc1ncnc2c1ncn2[C@@H]1O[C@H](CN(CC[C@H](N)C(=O)O)Cc2cccc(C(F)(F)F)c2)[C@@H](O)[C@H]1O` [GYZ-416], the IC50 is, setting by setting: under setting [3], 6580 nM; under setting [4], 6580 nM.
`CCCCCN(C/C=C/c1ccc(C#N)cc1)C[C@H]1O[C@@H](n2cnc3c(N)ncnc32)[C@H](O)[C@@H]1O` [GYZ-718]: the IC50 is greater than 25000 nM under setting [1] and greater than 25000 nM under setting [2].
As for `N#Cc1ccc(/C=C/CN(CCNC(=O)C(F)(F)Cl)C[C@H]2O[C@@H](n3cnc4c(N)ncnc43)[C@H](O)[C@@H]2O)cc1` [GYZ-701], the IC50 under setting [1] was greater than 25000 nM and the IC50 under setting [2] is greater than 25000 nM.
With `Nc1ncnc2c1ncn2[C@@H]1O[C@H](CN(CCCc2ccc([N+](=O)[O-])cc2)CC[C@H](N)C(=O)O)[C@@H](O)[C@H]1O` [GYZ-447], the IC50 was found to be 294 nM (IC50 values (nM), Table 5, 3-carbon alkyl linkers) and 290 nM (IC50 values (μM), Table 5, 3-carbon alkyl linkers).
On to `Nc1ncnc2c1ncn2[C@@H]1O[C@H](CN(C/C=C/c2ccc(C(=O)O)cc2)CC[C@H](N)C(=O)O)[C@@H](O)[C@H]1O` [GYZ-564], for which the IC50 under setting [7] was greater than 25000 nM.
With `Nc1ncnc2c1ncn2[C@@H]1O[C@H](CN(CC[C@H](N)C(=O)O)Cc2ccc(C(F)(F)F)cc2)[C@@H](O)[C@H]1O` [GYZ-414], the IC50 stood at 6790 nM under setting [3] and 6790 nM under setting [4].
With `Nc1ncnc2c1ncn2[C@@H]1O[C@H](CN(CC[C@H](N)C(=O)O)Cc2ccc([N+](=O)[O-])cc2)[C@@H](O)[C@H]1O` [GYZ-420], the IC50 is 6610 nM under setting [3] and 6610 nM under setting [4].
Under setting [1], `N#Cc1ccc(/C=C/CN(CCC[C@H](N)C(=O)O)C[C@H]2O[C@@H](n3cnc4c(N)ncnc43)[C@H](O)[C@@H]2O)cc1` [GYZ-485] returned an IC50 of 356 nM.
Regarding `C=CC(=O)NCCN(C/C=C/c1ccc(C#N)cc1)C[C@H]1O[C@@H](n2cnc3c(N)ncnc32)[C@H](O)[C@@H]1O` [GYZ-604], the IC50 under setting [1] amounted to 21000 nM and the IC50 under setting [2] is 21000 nM.
Consider `N#Cc1ccc(/C=C/CN(CCCNC(=O)CCl)C[C@H]2O[C@@H](n3cnc4c(N)ncnc43)[C@H](O)[C@@H]2O)cc1` [GYZ-608], for which the IC50 reads like this: under setting [1], 11900 nM; under setting [2], 11900 nM.
In the case of `Nc1ncnc2c1ncn2[C@@H]1O[C@H](CN(CC[C@H](N)C(=O)O)Cc2ccc(F)c([N+](=O)[O-])c2)[C@@H](O)[C@H]1O` [GYZ-417], the IC50 (read-out: IC50 values, Table 3, 1-carbon alkyl linkers, maximum concentration tested 25 μM) was 410 nM and 407 nM.
Regarding `Nc1ncnc2c1ncn2[C@@H]1O[C@H](CN(CC[C@H](N)C(=O)O)Cc2ccccc2C(F)(F)F)[C@@H](O)[C@H]1O` [GYZ-415], the IC50 stood at 9700 nM under setting [3] and 9700 nM under setting [4].
On to `N#Cc1ccc(/C=C/CN(CC[C@H](N)C(=O)O)C[C@H]2O[C@@H](n3cnc4c(N)ncnc43)[C@H](O)[C@@H]2O)cc1C(N)=O` [GYZ-755], for which, under setting [7], the IC50 was 29 nM and 28.7 nM.
Still for that read-out and setting: next, `Nc1ncnc2c1ncn2[C@@H]1O[C@H](CN(C/C=C/c2ccc(B(O)O)cc2)CC[C@H](N)C(=O)O)[C@@H](O)[C@H]1O` [GYZ-732]: greater than 25000 nM.
For `Nc1ncnc2c1ncn2[C@@H]1O[C@H](CN(CC[C@H](N)C(=O)O)Cc2cccc([N+](=O)[O-])c2)[C@@H](O)[C@H]1O` [GYZ-419], the IC50 is, setting by setting: under setting [3], 320 nM; under setting [4], 320 nM.
With `Nc1ncnc2c1ncn2[C@@H]1O[C@H](CN(C/C=C/c2ccc(S(=O)(=O)F)cc2)CC[C@H](N)C(=O)O)[C@@H](O)[C@H]1O` [GYZ-736], the IC50 under setting [7] is 68 nM and 67.9 nM.
With `N#Cc1ccc(/C=C/CN(CCNC(=O)C(F)(F)F)C[C@H]2O[C@@H](n3cnc4c(N)ncnc43)[C@H](O)[C@@H]2O)cc1` [GYZ-693], the IC50 amounted to 7770 nM under setting [1] and 7770 nM under setting [2].
As to `N#Cc1ccc(/C=C/CN(CCCCc2ccccc2)C[C@H]2O[C@@H](n3cnc4c(N)ncnc43)[C@H](O)[C@@H]2O)cc1` [GYZ-756], the IC50 is greater than 25000 nM under setting [1] and greater than 25000 nM under setting [2].
Consider `Nc1ncnc2c1ncn2[C@@H]1O[C@H](CN(CC[C@H](N)C(=O)O)Cc2cccc(F)c2)[C@@H](O)[C@H]1O` [GYZ-422], for which the IC50 is 1240 nM under setting [3] and 1240 nM under setting [4].
With `N#Cc1ccc(/C=C/CN(CC(=O)CCl)C[C@H]2O[C@@H](n3cnc4c(N)ncnc43)[C@H](O)[C@@H]2O)cc1` [GYZ-702], the IC50 runs as follows: under setting [1], 980 nM; under setting [2], 980 nM.
Regarding `Nc1ncnc2c1ncn2[C@@H]1O[C@H](CN(C/C=C/c2c(F)c(F)cc(F)c2F)CC[C@H](N)C(=O)O)[C@@H](O)[C@H]1O` [MH612], the IC50 is, setting by setting: under setting [5], 1810 nM; under setting [6], 1810 nM.
Turning to `COC(=O)/C=C/C(=O)NCCN(C/C=C/c1ccc(C#N)cc1)C[C@H]1O[C@@H](n2cnc3c(N)ncnc32)[C@H](O)[C@@H]1O` [GYZ-694], the IC50 was greater than 25000 nM under setting [1] and greater than 25000 nM under setting [2].
As for `C=CC(=O)CCCN(C/C=C/c1ccc(C#N)cc1)C[C@H]1O[C@@H](n2cnc3c(N)ncnc32)[C@H](O)[C@@H]1O` [GYZ-704], under “read-out: IC50 values, Table 6, amino acid replacement, maximum concentration tested 25 μM”, the IC50 amounted to 538 nM.
Consider `Nc1ncnc2c1ncn2[C@@H]1O[C@H](CN(CC[C@H](N)C(=O)O)Cc2ccc(F)cc2)[C@@H](O)[C@H]1O` [GYZ-423], for which the IC50 is greater than 25000 nM under setting [3] and greater than 25000 nM under setting [4].
For the compound `Nc1ncnc2c1ncn2[C@@H]1O[C@H](CN(CC[C@H](N)C(=O)O)Cc2ccccc2F)[C@@H](O)[C@H]1O` [GYZ-421], the IC50 under setting [3] was greater than 25000 nM and the IC50 under setting [4] is greater than 25000 nM.
Take `C=CC(=O)N1CC(CN(C/C=C/c2ccc(C#N)cc2)C[C@H]2O[C@@H](n3cnc4c(N)ncnc43)[C@H](O)[C@@H]2O)C1` [GYZ-665]: the IC50 runs as follows: under setting [1], 4160 nM; under setting [2], 4160 nM.
